Source: patent publication US8552002B2 (Novartis AG, priority 2004, dated 2013)

What was measured:
Format in all cases: biochemical
[1] = target: T1, FGFR3 (K650E) (Homo sapiens, UniProt P22607, K650E); experiment: Recombinant GST-FGFR-3-K650E tyrosine kinase assay (33P into poly(Glu,Tyr)); conditions: 10 μM; Examples 1 to 169; read-out: FGFR3 (K650E) inhibition at 10 μM
T1 construct: amino acids 411-806 of the cytoplasmic domain of human FGFR-3, N-terminally fused to GST; made in house; host or cells: Sf9 insect cells (baculovirus)

[2] = target: T2, Tek (Homo sapiens, UniProt Q02763); experiment: Recombinant GST-Tek (Tie-2) tyrosine kinase assay (33P into poly(Glu,Tyr)); conditions: Examples 1 to 169
T2 construct: amino acids 773-1124 of the cytoplasmic kinase domain of human Tek, N-terminally fused to GST; made in house; host or cells: Sf9 insect cells (baculovirus)
Description: (Tie-2/Tek): The baculovirus donor vector pFbacG01 was used to generate a recombinant baculovirus that expressed the amino acid region amino acids 773-1124 of the cytoplasmic kinase domain of human Tek, N-terminally fused to GST (Provided by Dr. Marmé, Institute of Molecular Medicine, Freiburg, Germany based on a Research Collaboration). Tek was recloned into the pFbacG01 transfer vector by EcoRI excision and ligation into EcoRI digested pFbacG01 (FBG-Tie2/Tek).
Production of virus: Transfer vectors containing the kinase domains were transfected into the DH10Bac cell line (GIBCO) and plated on selective agar plates. Colonies without insertion of the fusion sequence into the viral genome (carried by the bacteria) are blue. Single white colonies were picked and viral DNA (bacmid) isolated from the bacteria by standard plasmid purification procedures. Sf9 cells or Sf21 cells were then transfected in 25 cm^2 flasks with the viral DNA using Cellfectin reagent.
Determination of small scale protein expression in Sf9 cells: Virus containing media was collected from the transfected cell culture and used for infection to increase its titer. Virus containing media obtained after two rounds of infection was used for large-scale protein expression. For large-scale protein expression 100 cm^2 round tissue culture plates were seeded with 5×10^7 cells/plate and infected with 1 mL of virus-containing media (approx. 5 MOIs). After 3 days the cells were scraped off the plate and centrifuged at 500 rpm for 5 min. Cell pellets from 10-20, 100 cm^2 plates, were resuspended in 50 mL of ice-cold lysis buffer (25 mMTris-HCl, pH7.5, 2 mMEDTA, 1% NP-40, 1 mM DTT, 1 mMP MSF). The cells were stirred on ice for 15 min and then centrifuged at 5000 rpms for 20 min.
Purification of GST-tagged proteins: The centrifuged cell lysate was loaded onto a 2 mL glutathione-sepharose column and washed three times with 10 mL of 25 mM Tris-HCl, pH 7.5, 2 mM EDTA, 1 mM DTT, 200 mM NaCl. The GST-tagged proteins were then eluted by 10 applications (1 mL each) of 25 mM Tris-HCl, pH 7.5, 10 mM reduced-glutathione, 100 mM NaCl, 1 mM DTT, 10% Glycerol and stored at −70° C.
Measure of enzyme activity: Tyrosine protein kinase assays with either purified GST-Ret, GST-Tek or GST-FGFR-3-K650E were carried out in a final volume of 30 μL with final concentrations of the following components: Ret included 15 ng of GST-Ret, 20 mM Tris-HCl, pH 7.5, 1 mM MnCl2, 10 mM MgCl2, 1 mM DTT, 3 μg/mL poly(Glu,Tyr) 4:1, 1% DMSO and 2.0 μM ATP (γ-[^33P]-ATP 0.1 μCi). Tek included 150 ng of GST-Tek, 20 mM Tris-HCl, pH 7.5, 3 mM MnCl2, 3 mM MgCl2, 1 mM DTT, 0.01 mM Na3VO4, 250 μg/mL PEG 20'000, 10 μg/mL poly(Glu,Tyr) 4:1, 1% DMSO and 4.0 μM ATP (γ-[^33P]-ATP 0.1 μCi). FGFR-3-K650E included 10 ng of GST-FGFR-3-K650E, 20 mM Tris-HCl, pH 7.5, 3 mM MnCl2, 3 mM MgCl2, 1 mM DTT, […], 10 μg/mL poly(Glu,Tyr) 4:1, 1% DMSO and 4.0 μM ATP (γ-[^33P]-ATP 0.1 μCi).The activity was assayed in the presence or absence of inhibitors, by measuring the incorporation of ^33P from [γ^33P] ATP into poly(Glu,Tyr) 4:1. The assay was carried out in 96-well plates at ambient temperature for 30 min under conditions described below and terminated by the addition of 50 μL of 125 mM EDTA. Subsequently, 60 μL of the reaction mixture were transferred onto Immobilon-PVDF membrane (Millipore) previously soaked for 5 min with methanol, rinsed with water, then soaked for 5 min with 0.5% H3PO4 and mounted on vacuum manifold with disconnected vacuum source. After spotting all samples, vacuum was connected and each well rinsed with 200 μL 0.5% H3PO4. Membranes were removed and washed 4× on a shaker with 1.0% H3PO4, once with ethanol. Membranes were counted after drying at ambient temperature, mounting in Packard TopCount 96-well frame, and addition of 10 μL/well of Microscint™ (Packard). […]

[3] = target: T3, KDR (Homo sapiens, UniProt P35968); experiment: Inhibitory activity against KDR (VEGF-R2), in vitro data of Examples 170 and 207; conditions: 10 μM; Examples 1 to 169; read-out: KDR inhibition at 10 μM
T3 construct: expressed in transfected cells; host or cells: CHO cells
Experimental: (Controls comprise medium without test compounds). After two hours of incubation at 37° C., recombinant VEGF is added; the final VEGF concentration is 20 ng/ml. After a further five minutes incubation at 37° C., the cells are washed twice with ice-cold PBS (phosphate-buffered saline) and immediately lysed in 100 μl lysis buffer per well. The lysates are then centrifuged to remove the cell nuclei, and the protein concentrations of the supernatants are determined using a commercial protein assay (BIORAD). The lysates can then either be immediately used or, if necessary, stored at −20° C. […] The plates are then washed and the remaining free protein-binding sites are saturated with 3% TopBlock® (Juro, Cat. # TB232010) in phosphate buffered saline with Tween 20® (polyoxyethylen(20)sorbitane monolaurate, ICI/Uniquema) (PBST). The cell lysates (20 μg protein per well) are then incubated in these plates overnight at 4° C. together with an antiphosphotyrosine antibody coupled with alkaline phosphatase (PY20:AP from Zymed). […] The luminescence is measured in a Packard Top Count Microplate Scintillation Counter.

T2 sequence (Q02763 773-1124): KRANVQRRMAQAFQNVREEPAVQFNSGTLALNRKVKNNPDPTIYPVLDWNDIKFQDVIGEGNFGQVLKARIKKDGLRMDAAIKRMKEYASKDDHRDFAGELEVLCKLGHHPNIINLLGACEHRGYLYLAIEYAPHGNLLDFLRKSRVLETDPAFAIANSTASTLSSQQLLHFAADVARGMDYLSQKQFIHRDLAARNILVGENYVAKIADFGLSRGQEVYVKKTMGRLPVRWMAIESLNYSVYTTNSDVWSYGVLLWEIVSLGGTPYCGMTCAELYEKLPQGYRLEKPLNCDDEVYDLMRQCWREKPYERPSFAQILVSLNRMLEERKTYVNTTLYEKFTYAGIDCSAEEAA
T1 sequence (P22607 411-806 K650E): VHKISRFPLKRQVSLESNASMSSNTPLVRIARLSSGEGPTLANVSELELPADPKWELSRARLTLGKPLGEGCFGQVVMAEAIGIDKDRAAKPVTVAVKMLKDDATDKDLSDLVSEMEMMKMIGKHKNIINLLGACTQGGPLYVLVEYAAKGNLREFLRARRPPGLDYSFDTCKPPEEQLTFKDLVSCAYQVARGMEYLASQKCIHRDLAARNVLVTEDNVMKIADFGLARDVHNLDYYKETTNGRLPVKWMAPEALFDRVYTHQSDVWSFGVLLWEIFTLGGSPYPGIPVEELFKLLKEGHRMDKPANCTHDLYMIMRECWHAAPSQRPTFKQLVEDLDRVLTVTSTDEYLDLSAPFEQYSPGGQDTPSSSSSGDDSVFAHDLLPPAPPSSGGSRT
T3 sequence (P35968 20-1356): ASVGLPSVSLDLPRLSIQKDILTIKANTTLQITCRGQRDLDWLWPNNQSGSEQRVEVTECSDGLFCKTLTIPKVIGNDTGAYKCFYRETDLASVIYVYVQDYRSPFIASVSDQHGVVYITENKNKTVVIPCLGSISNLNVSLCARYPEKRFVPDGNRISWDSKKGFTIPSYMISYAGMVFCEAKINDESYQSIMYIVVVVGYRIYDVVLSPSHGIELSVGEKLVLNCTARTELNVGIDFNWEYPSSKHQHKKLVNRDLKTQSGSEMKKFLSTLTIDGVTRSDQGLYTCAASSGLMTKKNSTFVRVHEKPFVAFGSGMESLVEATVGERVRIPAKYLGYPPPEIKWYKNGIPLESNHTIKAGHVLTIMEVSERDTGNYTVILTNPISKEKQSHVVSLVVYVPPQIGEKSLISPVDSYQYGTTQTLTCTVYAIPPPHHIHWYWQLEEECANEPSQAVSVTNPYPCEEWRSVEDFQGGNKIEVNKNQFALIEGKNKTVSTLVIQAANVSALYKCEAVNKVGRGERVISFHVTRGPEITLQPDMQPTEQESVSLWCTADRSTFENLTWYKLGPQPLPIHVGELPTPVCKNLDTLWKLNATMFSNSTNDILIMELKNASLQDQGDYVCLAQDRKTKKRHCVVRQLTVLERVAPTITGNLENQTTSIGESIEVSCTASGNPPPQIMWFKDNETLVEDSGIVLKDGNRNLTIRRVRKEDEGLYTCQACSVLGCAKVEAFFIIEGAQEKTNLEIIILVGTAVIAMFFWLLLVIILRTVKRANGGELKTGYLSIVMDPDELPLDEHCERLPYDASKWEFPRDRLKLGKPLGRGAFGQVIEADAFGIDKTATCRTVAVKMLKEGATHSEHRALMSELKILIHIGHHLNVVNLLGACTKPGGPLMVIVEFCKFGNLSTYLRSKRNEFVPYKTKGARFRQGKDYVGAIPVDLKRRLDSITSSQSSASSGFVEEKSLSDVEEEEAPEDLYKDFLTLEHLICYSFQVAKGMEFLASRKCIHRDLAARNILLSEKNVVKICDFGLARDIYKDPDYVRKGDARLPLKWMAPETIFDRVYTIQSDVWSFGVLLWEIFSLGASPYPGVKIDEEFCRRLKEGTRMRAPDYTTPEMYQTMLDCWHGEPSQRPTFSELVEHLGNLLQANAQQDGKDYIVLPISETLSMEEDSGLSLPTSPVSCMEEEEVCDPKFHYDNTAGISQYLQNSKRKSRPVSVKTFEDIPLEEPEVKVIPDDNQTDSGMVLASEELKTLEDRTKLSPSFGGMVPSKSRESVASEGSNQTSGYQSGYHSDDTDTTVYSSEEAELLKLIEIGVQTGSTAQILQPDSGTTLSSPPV

For `COc1cc(NC(=O)Nc2cc(Nc3ccc(N4CCN(C)CC4)cc3)ncn2)cc(OC)c1OC` [Example 14, 1-{6-[4-(4-Methyl-piperazin-1-yl)-phenylamino]-pyrimidin-4-yl}-3-(3,4,5-trimethoxy-phenyl)-urea], the inhibition at 10 µM [1] was 27 to 100%, the inhibition at 10 µM [2] was 12 to 100% and the inhibition at 10 µM [3] was 67 to 100%.
In the case of `COc1cc(NC(=O)Nc2cc(Nc3cccc(N4CCN(C)CC4)c3)ncn2)cc(OC)c1OC` [Example 15, 1-{6-[3-(4-Methyl-piperazin-1-yl)-phenylamino]-pyrimidin-4-yl}-3-(3,4,5-trimethoxy-phenyl)-urea], the inhibition at 10 µM [1] is reported as 27 to 100%, the inhibition at 10 µM [2] is reported as 12 to 100% and the inhibition at 10 µM [3] is reported as 67 to 100%.
`COc1ccc(NC(=O)Nc2cc(Nc3ccc(N4CCN(C)CC4)cc3)ncn2)c(OC)c1` [Example 16, 1-(2,4-Dimethoxy-phenyl)-3-{6-[4-(4-methyl-piperazin-1-yl)-phenyl-amino]-pyrimidin-4-yl}-urea] gave an inhibition at 10 µM [1] of 27 to 100%, an inhibition at 10 µM [2] of 12 to 100% and an inhibition at 10 µM [3] of 67 to 100%.
Work on `COc1ccc(NC(=O)Nc2cc(Nc3cccc(N4CCN(C)CC4)c3)ncn2)c(OC)c1` [Example 17, 1-(2,4-Dimethoxy-phenyl)-3-{6-[3-(4-methyl-piperazin-1-yl)-phenyl-amino]-pyrimidin-4-yl}-urea] yielded an inhibition at 10 µM [1] of 27 to 100%, an inhibition at 10 µM [2] of 12 to 100% and an inhibition at 10 µM [3] of 67 to 100%.
Molecule `COc1cc(NC(=O)Nc2cc(Nc3ccc(N4CCN(C)CC4)cc3)ncn2)cc(OC)c1` [Example 18, 1-(3,5-Dimethoxy-phenyl)-3-{6-[4-(4-methyl-piperazin-1-yl)-phenyl-amino]-pyrimidin-4-yl}-urea] has an inhibition at 10 µM [1] of 27 to 100%, an inhibition at 10 µM [2] of 12 to 100% and an inhibition at 10 µM [3] of 67 to 100%.
`COc1cc(NC(=O)Nc2cc(Nc3cccc(N4CCN(C)CC4)c3)ncn2)cc(OC)c1` [Example 19, 1-(3,5-Dimethoxy-phenyl)-3-{6-[3-(4-methyl-piperazin-1-yl)-phenyl-amino]-pyrimidin-4-yl}-urea] gave an inhibition at 10 µM [1] of 27 to 100%, an inhibition at 10 µM [2] of 12 to 100% and an inhibition at 10 µM [3] of 67 to 100%.
With `CN1CCN(c2ccc(Nc3cc(NC(=O)Nc4cc(C(F)(F)F)cc(C(F)(F)F)c4)ncn3)cc2)CC1` [Example 20, 1-(3,5-Bis-trifluoromethyl-phenyl)-3-{6-[4-(4-methyl-piperazin-1-yl)-phenylamino]-pyrimidin-4-yl}-urea] the inhibition at 10 µM [1] was 27 to 100%, the inhibition at 10 µM [2] was 12 to 100% and the inhibition at 10 µM [3] was 67 to 100%.
`CN1CCN(c2cccc(Nc3cc(NC(=O)Nc4cc(C(F)(F)F)cc(C(F)(F)F)c4)ncn3)c2)CC1` [Example 21, 1-(3,5-Bis-trifluoromethyl-phenyl)-3-{6-[3-(4-methyl-piperazin-1-yl)-phenylamino]-pyrimidin-4-yl}-urea] showed an inhibition at 10 µM [1] of 27 to 100%, an inhibition at 10 µM [2] of 12 to 100% and an inhibition at 10 µM [3] of 67 to 100%.
With `Cc1cc(C)cc(NC(=O)Nc2cc(Nc3ccc(N4CCN(C)CC4)cc3)ncn2)c1` [Example 22, 1-(3,5-Dimethyl-phenyl)-3-{6-[4-(4-methyl-piperazin-1-yl)-phenyl-amino]-pyrimidin-4-yl}-urea] the inhibition at 10 µM [1] was 27 to 100%, the inhibition at 10 µM [2] was 12 to 100% and the inhibition at 10 µM [3] was 67 to 100%.
`Cc1cc(C)cc(NC(=O)Nc2cc(Nc3cccc(N4CCN(C)CC4)c3)ncn2)c1` [Example 23, 1-(3,5-Dimethyl-Phenyl)-3-{6-[3-(4-methyl-piperazin-1-yl)-phenyl-amino]-pyrimidin-4-yl}-urea] showed an inhibition at 10 µM [1] of 27 to 100%, an inhibition at 10 µM [2] of 12 to 100% and an inhibition at 10 µM [3] of 67 to 100%.
In the case of `COc1ccc(NC(=O)Nc2cc(Nc3ccc(N4CCN(C)CC4)cc3)ncn2)cc1Cl` [Example 24, 1-(3-Chloro-4-methoxy-phenyl)-3-{6-[4-(4-methyl-piperazin-1-yl)-phenyl-amino]-pyrimidin-4-yl}-urea], the inhibition at 10 µM [1] is reported as 27 to 100%, the inhibition at 10 µM [2] is reported as 12 to 100% and the inhibition at 10 µM [3] is reported as 67 to 100%.
In the case of `COc1ccc(NC(=O)Nc2cc(Nc3cccc(N4CCN(C)CC4)c3)ncn2)cc1Cl` [Example 25, 1-(3-Chloro-4-methoxy-phenyl)-3-{6-[3-(4-methyl-piperazin-1-yl)-phenyl-amino]-pyrimidin-4-yl}-urea], the inhibition at 10 µM [1] is reported as 27 to 100%, the inhibition at 10 µM [2] is reported as 12 to 100% and the inhibition at 10 µM [3] is reported as 67 to 100%.
`COc1ccc(C)c(NC(=O)Nc2cc(Nc3ccc(N4CCN(C)CC4)cc3)ncn2)c1` [Example 26, 1-(5-Methoxy-2-methyl-phenyl)-3-{6-[4-(4-methyl-piperazin-1-yl)-phenyl-amino]-pyrimidin-4-yl}-urea] showed an inhibition at 10 µM [1] of 27 to 100%, an inhibition at 10 µM [2] of 12 to 100% and an inhibition at 10 µM [3] of 67 to 100%.
With `COc1ccc(C)c(NC(=O)Nc2cc(Nc3cccc(N4CCN(C)CC4)c3)ncn2)c1` [Example 27, 1-(5-Methoxy-2-methyl-phenyl)-3-{6-[3-(4-methyl-piperazin-1-yl)-phenyl-amino]-pyrimidin-4-yl}-urea] the inhibition at 10 µM [1] was 27 to 100%, the inhibition at 10 µM [2] was 12 to 100% and the inhibition at 10 µM [3] was 67 to 100%.
`COc1ccc(Cl)c(NC(=O)Nc2cc(Nc3cccc(N4CCN(C)CC4)c3)ncn2)c1` [Example 29, 1-(2-Chloro-5-methoxy-phenyl)-3-{6-[3-(4-methyl-piperazin-1-yl)-phenyl-amino]-pyrimidin-4-yl}-urea] showed an inhibition at 10 µM [1] of 27 to 100%, an inhibition at 10 µM [2] of 12 to 100% and an inhibition at 10 µM [3] of 67 to 100%.
With `COc1ccc(NC(=O)Nc2cc(Nc3ccc(N4CCN(C)CC4)cc3)ncn2)cc1OC` [Example 30, 1-(3,4-Dimethoxy-phenyl)-3-{6-[4-(4-methyl-piperazin-1-yl)-phenyl-amino]-pyrimidin-4-yl}-urea] the inhibition at 10 µM [1] was 27 to 100%, the inhibition at 10 µM [2] was 12 to 100% and the inhibition at 10 µM [3] was 67 to 100%.
Work on `COc1ccc(NC(=O)Nc2cc(Nc3cccc(N4CCN(C)CC4)c3)ncn2)cc1OC` [Example 31, 1-(3,4-Dimethoxy-Phenyl)-3-{6-[3-(4-methyl-piperazin-1-yl)-phenyl-amino]-pyrimidin-4-yl}-urea] yielded an inhibition at 10 µM [1] of 27 to 100%, an inhibition at 10 µM [2] of 12 to 100% and an inhibition at 10 µM [3] of 67 to 100%.
